Results taken from publication PMC10851555, “Safinamide, an inhibitor of monoamine oxidase, modulates the magnitude, gating, and hysteresis of sodium ion current” (BMC Pharmacology & Toxicology, 2024).

Tested on: voltage-gated sodium ion (NaV) channels in pituitary GH3 cells
Assay: Window INa [INa(W)] induced by ascending ramp voltage (−100 to +40 mV over 200 ms) in GH3 cells
Format: cell-based, rat
Details: for ∆G0 for gating of INa(W) activation at 0 mV: control 6.78 ± 1.1, ∆G0 = q × F × V1/2, n = 7
Text: The sigmoidal relationship between Vramp-induced INa(W) and the upsloping Vramp (nonlinear current–voltage relationship) was investigated and fitted with the Boltzmann function as follows: [drawing 2]
where V is the membrane potential in millivolts, Erev is the reversal potential of INa, G is the INa conductance in nanosiemens, I is the current, Vh is the voltage at which half-maximal activation or inactivation of the current occurs, q is the apparent gating charge, F is Faraday’s constant, R is the universal gas constant, and T is the absolute temperature.
The free energy ∆G0 for the gating of INa(W) was determined by assuming a two-state gating model [equilibrium between closed (resting) and open states] of the NaV channel. The ∆G0 for the activation of INa(W) at 0 mV could be calculated as follows: q × F × V1/2 [45, 46]. The standard errors in ∆G0 ( [drawing 3] ) could be calculated as follows: […]
In the present study, we investigated whether the addition of SAF to GH3 cells modulates the magnitude of INa(W) induced by ascending Vramp. Test cells were maintained at −80 mV and subjected to Vramp ascending from −100 to +40 mV over 200 ms (i.e., ramp speed of 0.7 mV/ms) to induce INa(W). […] The ∆area values of INa(W) in the absence and presence of SAF and SAF plus Ran were calculated (Fig. 7B).
Fig. 7 Stimulatory effects of SAF on window INa [INa(W)] induced by an ascending ramp voltage Vramp in GH3 cells. For the experiments, the test cells were maintained at −80 mV and subjected to Vramp ranging from −100 to +40 mV over 200 ms (ramp speed of 0.7 mV/ms). (A) INa(W) trace in the absence (a, blue) and presence (b, red) of 10 μM SAF. The inset indicates the Vramp protocol, and the downward deflection indicates inward-directed current. The continuous gray lines corresponding to the untreated or SAF-treated (10 μM) cells were fitted (least-squares minimization) with the Boltzmann equation. The values of […] and q (apparent gating charge) induced by ascending Vramp over 200 ms in the absence (blue) of SAF were, respectively, −34 mV and 2.1 e; the corresponding values in the presence (red) of 10 μM SAF were −38 mV and 2.8 e, respectively. (B) Summary graph illustrating the effects of SAF (3 and 10 μM) and SAF (10 μM) plus Ran (10 μM) on the Δarea of INa(W) in GH3 cells (mean ± standard error of the mean; n = 7 for each point). The value of Δarea was measured at a voltage ranging from −80 and +40 mV, which corresponded to INa(W) induced by the ascending Vramp. […] (C) Summary graph illustrating the effects of SAF (3 and 10 μM) and SAF plus Ran (10 μM) on ΔG0 (mean ± standard error of the mean; n = 7 for each point). The estimation of ΔG0 for the induction of instantaneous INa(W) is described in the Materials and Methods section.

SMILES: C[C@H](NCc1ccc(OCc2cccc(F)c2)cc1)C(N)=O [SAF, (S)-2-((4-((3-fluorobenzyl)oxy)benzyl)amino)propanamide]
- ∆G0 for gating of INa(W) activation at 0 mV (3 μM SAF): 2.11 ± 0.382 kcal/mol
- q (apparent gating charge) of INa(W) (10 μM SAF, absence of SAF 2.1 e): 2.8 e
- V1/2 (half-maximal activation voltage) of INa(W) induced by ascending Vramp (Boltzmann fit) (10 μM SAF, absence of SAF −34 mV): −38 mV
- ∆G0 for gating of INa(W) activation at 0 mV (10 μM SAF): 2.476 ± 0.43 kcal/mol
- amplitude and strength (∆area) of INa(W) (within 1 min of SAF exposure): sharply increased
